# Square brackets hold non-standard residues; d marks the D form. Ends that are not written are not given here. Oic = O=C(O)[C@@H]1C[C@@H]2CCCC[C@@H]2N1; Tic = O=C(O)[C@@H]1Cc2ccccc2CN1
# What was measured:
# [1] = system: MDA‐MB‐231 cells co‐cultured with NK‐92 cells; test: GzmA transfer in NK-92 / MDA-MB-231 coculture; format: cell-based, human; conditions: 5x10^5 MDA-MB-231 with 2x10^6 NK-92 cells, probe 5 μM, 1-6 h, flow cytometry and gel-based analyses
# Description: Figure 4 Characterization of qABPs in native proteomes. A) Labeling of GzmA by 5 and 6 in lysates of various cell lines (1 h, 37 °C). B) Stability of 5 and 6 in buffer and cell media (11 h, 37 °C). The hydrolysis of probes was measured by monitoring the production of Cy5 fluorescence signal over time. […] C) Labeling of GzmA by probes 3 –6 in NK‐92 cells (2 h, 37 °C). D) Flow cytometry analysis of protein labeling in NK‐92 cells by 3 –5. […] E) Flow cytometry analysis of concentration‐dependent GzmA labeling in NK‐92 cells and S/N of 5 (5 μM, 2 h, 37 °C). […]
# Supplementary Figure 5. […] Protein samples were analyzed by SDS-PAGE and in-gel fluorescence scanning for Cy5 signal. […]
# Conditions for Figure 4C: Various concentrations of probes 3-6 were incubated with 1x10^6 NK-92 cells for 2 h at 37 °C in a humidified incubator. […] Lysates were collected, protein concentration was measured with PIERCE BCA protein assay and samples were analyzed with in-gel fluorescence and GzmA western blotting. […]
# All flow cytometry data were collected on BD LSRFortessa and FACSymphony A5 Cell Analyzers and analyzed with FlowJo software. […] Fixed/Permeabilized cells were then resuspended in appropriate amounts of cell staining buffer (BioLegend #420201) and analyzed with flow cytometry and FlowJo software. […]
# [2] = Stability of probes in buffer and cell media (hydrolysis by Cy5 signal); format: physicochemical; conditions: cell culture media, 11 h incubation, 37 °C, read-out production of Cy5 fluorescence signal, mean ± SD n = 3
# Description: Figure 4 Characterization of qABPs in native proteomes. A) Labeling of GzmA by 5 and 6 in lysates of various cell lines (1 h, 37 °C). B) Stability of 5 and 6 in buffer and cell media (11 h, 37 °C). The hydrolysis of probes was measured by monitoring the production of Cy5 fluorescence signal over time. […] C) Labeling of GzmA by probes 3 –6 in NK‐92 cells (2 h, 37 °C). D) Flow cytometry analysis of protein labeling in NK‐92 cells by 3 –5. […] E) Flow cytometry analysis of concentration‐dependent GzmA labeling in NK‐92 cells and S/N of 5 (5 μM, 2 h, 37 °C). […] F) Flow cytometry analysis of protein labeling by 5 in MDA‐MB‐231 cells co‐cultured with NK‐92 cells (see Supporting Information for conditions). […] TEXT PRINTED IN THE PICTURE: (E) qABP 5: S/N = 4
Substance,Detection of GzmA transfer from NK-92 cells to MDA-MB-231 cells [1],Hydrolysis of probe [2]
IGNR [compound 5],able to detect GzmA transfer,–
[Tic]G[Oic]R [compound 6],–,≈ 20%

# Source: article PMC12703428, “Development of Granzyme A Turn‐ON Fluorescent Activity‐Based Probes” (Chembiochem, 2025)
